# Experimental data reported in PubChem BioAssay (NCI).
#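 Cultured in 96-well plates, cells were exposed to test compound for 48 hours across five concentrations. GI50 marks 50% less growth. At the TGI there is no net growth.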
# Legend:
# Experiment in all cases: inhibition of tumour cell growth, NCI panel, 48 h
# OVCAR-3 ovarian = test system: OVCAR-3 ovarian
# U251 CNS = test system: U251 CNS
# SK-MEL-2 melanoma = test system: SK-MEL-2 melanoma
# HS 578T breast = test system: HS 578T breast
# MDA-MB-231 breast = test system: MDA-MB-231 breast
# SF-539 CNS = test system: SF-539 CNS
# A549 NSCLC = test system: A549 NSCLC
# 786-0 renal = test system: 786-0 renal
# OVCAR-4 ovarian = test system: OVCAR-4 ovarian
# BT-549 breast = test system: BT-549 breast
# RXF 393 renal = test system: RXF 393 renal
# A498 renal = test system: A498 renal
# T-47D breast = test system: T-47D breast
# PC-3 prostate = test system: PC-3 prostate
# SNB-19 CNS = test system: SNB-19 CNS
# MOLT-4 leukemia = test system: MOLT-4 leukemia
# NCI-H460 lung = test system: NCI-H460 lung
# SK-MEL-5 melanoma = test system: SK-MEL-5 melanoma
# MALME-3M melanoma = test system: MALME-3M melanoma
# ACHN renal = test system: ACHN renal
# SW-620 colon = test system: SW-620 colon
# LOX IMVI melanoma = test system: LOX IMVI melanoma
# HT29 colon = test system: HT29 colon
# HOP-92 NSCLC = test system: HOP-92 NSCLC
# HCC-2998 colon = test system: HCC-2998 colon
# HL-60(TB) leukemia = test system: HL-60(TB) leukemia
# NCI-H522 lung = test system: NCI-H522 lung
# K-562 leukemia = test system: K-562 leukemia
smiles,measurement,setting,value
CCN(Cc1c(Cl)cccc1Cl)c1ccc(CO)c(Cl)c1,GI50,OVCAR-3 ovarian,0.232 µM
same,TGI,OVCAR-3 ovarian,1.07 µM
same,GI50,U251 CNS,0.372 µM
same,TGI,U251 CNS,15.3 µM
same,GI50,SK-MEL-2 melanoma,0.795 µM
same,TGI,SK-MEL-2 melanoma,13.4 µM
same,GI50,HS 578T breast,15.8 µM
same,TGI,HS 578T breast,37.9 µM
same,GI50,MDA-MB-231 breast,13 µM
same,TGI,MDA-MB-231 breast,26.2 µM
same,GI50,SF-539 CNS,15.1 µM
same,TGI,SF-539 CNS,28.6 µM
same,GI50,A549 NSCLC,3.35 µM
same,TGI,A549 NSCLC,20.6 µM
same,GI50,786-0 renal,13.8 µM
same,TGI,786-0 renal,28.1 µM
same,GI50,OVCAR-4 ovarian,0.194 µM
same,TGI,OVCAR-4 ovarian,8.24 µM
same,GI50,BT-549 breast,16.2 µM
same,TGI,BT-549 breast,30.4 µM
same,GI50,RXF 393 renal,7.16 µM
same,TGI,RXF 393 renal,24.7 µM
same,GI50,A498 renal,< 0.02 µM
same,TGI,A498 renal,0.0465 µM
same,GI50,T-47D breast,< 0.017 µM
same,TGI,T-47D breast,0.18 µM
same,GI50,PC-3 prostate,11.3 µM
same,TGI,PC-3 prostate,23.9 µM
same,GI50,SNB-19 CNS,13.2 µM
same,TGI,SNB-19 CNS,26.2 µM
same,GI50,MOLT-4 leukemia,14.8 µM
same,TGI,MOLT-4 leukemia,35.7 µM
same,GI50,NCI-H460 lung,0.171 µM
same,TGI,NCI-H460 lung,13.9 µM
same,GI50,SK-MEL-5 melanoma,2.86 µM
same,TGI,SK-MEL-5 melanoma,19.5 µM
same,GI50,MALME-3M melanoma,12.6 µM
same,TGI,MALME-3M melanoma,27.2 µM
same,GI50,ACHN renal,14.2 µM
same,TGI,ACHN renal,27.3 µM
same,GI50,SW-620 colon,0.549 µM
same,TGI,SW-620 colon,17 µM
same,GI50,LOX IMVI melanoma,16.9 µM
same,TGI,LOX IMVI melanoma,32.6 µM
same,GI50,HT29 colon,2.43 µM
same,TGI,HT29 colon,15.3 µM
same,GI50,HOP-92 NSCLC,0.606 µM
same,TGI,HOP-92 NSCLC,9.64 µM
same,GI50,HCC-2998 colon,12.3 µM
same,TGI,HCC-2998 colon,27.6 µM
same,GI50,HL-60(TB) leukemia,8.17 µM
same,TGI,HL-60(TB) leukemia,25.7 µM
same,GI50,NCI-H522 lung,11.1 µM
same,TGI,NCI-H522 lung,24.9 µM
same,GI50,K-562 leukemia,0.439 µM
same,TGI,K-562 leukemia,10.6 µM
